Several values for one entry are separate records, joined by “and”; a condition that tells them apart may be missing. Equal values may be shown once. Activity calls are given as the source filed them. The rule behind the calls is not given here.

As a reminder, the TD50 is the dose at which the toxic effect under study appears in half of the subjects.

This data set concerns rodent lifetime carcinogenesis bioassay, tumor incidence TD50. Description: chronic cancer bioassays in animals – CPDB, compiled studies (AID 1745844).

For `O=[N+]([O-])c1ccc(-c2cscn2)o1`, the TD50 runs as follows: (rat, strain Sprague-Dawley albino, females, in feed, site: any site (literature study), lesion: several types, types named in the paper, dosed 46 weeks, study length 68 weeks) 7.68 mg/kg/day; (rat, strain Sprague-Dawley albino, females, in feed, site: forestomach, lesion: squamous-cell carcinoma, dosed 46 weeks, study length 68 weeks) 19.5 mg/kg/day; (rat, strain Sprague-Dawley albino, females, in feed, site: mammary gland, lesion: fibroadenoma, dosed 46 weeks, study length 68 weeks) 15.6 mg/kg/day.
As for `O=C1OC(c2ccc(O)cc2)(c2ccc(O)cc2)c2ccccc21`, the TD50 (mouse, strain B6C3F1, females, in feed, site: all sites + ovary, lesion: histiocytic sarcoma + lymphoma malignant, thymic origin + malignant lymphoma + sex-cord stromal tumor, benign, bilateral + sex-c, dosed 105 weeks, study length 105 weeks) turned out to be 508 mg/kg/day; the TD50 (mouse, strain B6C3F1, females, in feed, site: all sites, lesion: histiocytic sarcoma, dosed 105 weeks, study length 105 weeks) is 4080 mg/kg/day; the TD50 (mouse, strain B6C3F1, females, in feed, site: all sites, lesion: lymphoma malignant, thymic origin, dosed 105 weeks, study length 105 weeks) was 1610 mg/kg/day; the TD50 (mouse, strain B6C3F1, females, in feed, site: all sites, lesion: malignant lymphoma, dosed 105 weeks, study length 105 weeks) was 748 mg/kg/day; the TD50 (mouse, strain B6C3F1, females, in feed, site: any site (literature study), lesion: several types, types named in the paper, dosed 105 weeks, study length 105 weeks) was 1740 mg/kg/day; the TD50 (mouse, strain B6C3F1, females, in feed, site: lung, lesion: alveolar/bronchiolar adenoma + alveolar/bronchiolar carcinoma, dosed 105 weeks, study length 105 weeks) stood at 9190 mg/kg/day. In addition, the TD50 reads like this: (mouse, strain B6C3F1, females, in feed, site: ovary, lesion: sex-cord stromal tumor, benign, bilateral + sex-cord stromal tumor, benign, dosed 105 weeks, study length 105 weeks) 1900 mg/kg/day; (mouse, strain B6C3F1, males, in feed, site: all sites, lesion: histiocytic sarcoma + lymphoma malignant, thymic origin, dosed 104 weeks, study length 104 weeks) 1150 mg/kg/day; (mouse, strain B6C3F1, males, in feed, site: all sites, lesion: histiocytic sarcoma, dosed 104 weeks, study length 104 weeks) 2680 mg/kg/day; (mouse, strain B6C3F1, males, in feed, site: all sites, lesion: lymphoma malignant, thymic origin, dosed 104 weeks, study length 104 weeks) 2740 mg/kg/day; (mouse, strain B6C3F1, males, in feed, site: any site (literature study), lesion: several types, types named in the paper, dosed 104 weeks, study length 104 weeks) 32200 mg/kg/day; (mouse, strain B6C3F1, males, in feed, site: lung, lesion: alveolar/bronchiolar adenoma + alveolar/bronchiolar carcinoma, dosed 104 weeks, study length 104 weeks) 8060 mg/kg/day. In addition, the TD50 runs as follows: (mouse, strain B6C3F1, males, in feed, site: spleen, lesion: hemangiosarcoma, dosed 104 weeks, study length 104 weeks) 1640 mg/kg/day; (mouse, strain BALB/c, males, in feed, site: liver, lesion: hepatoma, dosed 60 weeks, study length 104 weeks) 20800 mg/kg/day (inactive); (rat, strain Fischer 344, females, in feed, site: adrenal medulla, lesion: pheochromocytoma benign, bilateral + pheochromocytoma, benign, dosed 105 weeks, study length 105 weeks) 4160 mg/kg/day; (rat, strain Fischer 344, females, in feed, site: adrenal medulla, lesion: pheochromocytoma benign, bilateral + pheochromocytoma, malignant + pheochromocytoma, benign, dosed 105 weeks, study length 105 weeks) 3530 mg/kg/day; (rat, strain Fischer 344, males, in feed, site: adrenal medulla + kidney, lesion: pheochromocytoma benign, bilateral + pheochromocytoma, benign + tubule adenoma + tubule carcinoma, dosed 104 weeks, study length 104 weeks) 250 mg/kg/day; (rat, strain Fischer 344, males, in feed, site: adrenal medulla, lesion: pheochromocytoma benign, bilateral + pheochromocytoma, benign, dosed 104 weeks, study length 104 weeks) 517 mg/kg/day. Moreover, the TD50 is, setting by setting: (rat, strain Fischer 344, males, in feed, site: adrenal medulla, lesion: pheochromocytoma benign, bilateral + pheochromocytoma, malignant + pheochromocytoma malignant, bilateral + pheochromocytoma, b, dosed 104 weeks, study length 104 weeks) 533 mg/kg/day; (rat, strain Fischer 344, males, in feed, site: any site (literature study), lesion: several types, types named in the paper, dosed 104 weeks, study length 104 weeks) 3540 mg/kg/day; (rat, strain Fischer 344, males, in feed, site: kidney, lesion: tubule adenoma + tubule carcinoma, dosed 104 weeks, study length 104 weeks) 3220 mg/kg/day and 975 mg/kg/day; (rat, strain Fischer 344, males, in feed, site: kidney, lesion: tubule adenoma, dosed 104 weeks, study length 104 weeks) 4050 mg/kg/day and 1040 mg/kg/day; (rat, strain Fischer 344, males, in feed, site: liver, lesion: hepatocellular adenoma + hepatoblastoma + hepatocellular carcinoma, dosed 104 weeks, study length 104 weeks) 118000 mg/kg/day; (rat, strain Fischer 344, males, in feed, site: thyroid gland, lesion: follicular-cell adenoma, bilateral + follicular-cell adenoma, dosed 104 weeks, study length 104 weeks) 6990 mg/kg/day. Moreover, the carcinogen call (mouse, strain BALB/c, males, in feed, site: lung, lesion: one or several types, types not named, dosed 60 weeks, study length 104 weeks) was “negative (inactive)”; the carcinogen call (mouse, strain C57BL/6J, males, by gavage, site: liver, lesion: hepatoma, dosed 69 weeks, study length 104 weeks) was “negative (inactive)”; the carcinogen call (mouse, strain C57BL/6J, males, by gavage, site: lung, lesion: one or several types, types not named, dosed 69 weeks, study length 104 weeks) is “negative (inactive)”.
With `O=C1OC(O)C(C(Cl)Cl)=C1Cl` (centres undefined), the TD50 is 10.6 mg/kg/day (rat, strain Wistar, females, in drinking water, site: adrenal gland, lesion: cortical adenoma, dosed 104 weeks, study length 104 weeks); 41.5 mg/kg/day (rat, strain Wistar, females, in drinking water, site: all sites, lesion: lymphoma and leukemia, combined, dosed 104 weeks, study length 104 weeks); 2.73 mg/kg/day (rat, strain Wistar, females, in drinking water, site: liver, lesion: cholangioadenoma/carcinoma, dosed 104 weeks, study length 104 weeks); 122 mg/kg/day (rat, strain Wistar, females, in drinking water, site: liver, lesion: cholangiocarcinoma, dosed 104 weeks, study length 104 weeks); 2.73 mg/kg/day (rat, strain Wistar, females, in drinking water, site: liver, lesion: cholangioma, dosed 104 weeks, study length 104 weeks); 16 mg/kg/day (rat, strain Wistar, females, in drinking water, site: liver, lesion: hepatocellular adenoma, dosed 104 weeks, study length 104 weeks). Besides, the TD50 (rat, strain Wistar, females, in drinking water, site: liver, lesion: hepatocellular tumor, dosed 104 weeks, study length 104 weeks) was 14.9 mg/kg/day; the TD50 (rat, strain Wistar, females, in drinking water, site: mammary gland, lesion: adenocarcinoma, dosed 104 weeks, study length 104 weeks) was 14 mg/kg/day; the TD50 (rat, strain Wistar, females, in drinking water, site: mammary gland, lesion: fibroadenoma, dosed 104 weeks, study length 104 weeks) is 5.13 mg/kg/day; the TD50 (rat, strain Wistar, females, in drinking water, site: mammary gland, lesion: several types, types named in the paper, dosed 104 weeks, study length 104 weeks) was 13 mg/kg/day; the TD50 (rat, strain Wistar, females, in drinking water, site: thyroid gland, lesion: follicular-cell adenoma, dosed 104 weeks, study length 104 weeks) was 0.645 mg/kg/day; the TD50 (rat, strain Wistar, females, in drinking water, site: thyroid gland, lesion: follicular-cell carcinoma, dosed 104 weeks, study length 104 weeks) was 5.2 mg/kg/day. In addition, the TD50 runs as follows: (rat, strain Wistar, females, in drinking water, site: thyroid gland, lesion: several types, types named in the paper, dosed 104 weeks, study length 104 weeks) 0.741 mg/kg/day; (rat, strain Wistar, males, in drinking water, site: adrenal gland, lesion: cortical adenoma, dosed 104 weeks, study length 104 weeks) 9.68 mg/kg/day; (rat, strain Wistar, males, in drinking water, site: all sites, lesion: lymphoma and leukemia, combined, dosed 104 weeks, study length 104 weeks) 53.1 mg/kg/day; (rat, strain Wistar, males, in drinking water, site: liver, lesion: cholangioma, dosed 104 weeks, study length 104 weeks) 31.4 mg/kg/day; (rat, strain Wistar, males, in drinking water, site: liver, lesion: hepatocellular adenoma, dosed 104 weeks, study length 104 weeks) 24.4 mg/kg/day; (rat, strain Wistar, males, in drinking water, site: liver, lesion: hepatocellular carcinoma, dosed 104 weeks, study length 104 weeks) 53.4 mg/kg/day. Further, the TD50 was 17.7 mg/kg/day (rat, strain Wistar, males, in drinking water, site: liver, lesion: hepatocellular tumor, dosed 104 weeks, study length 104 weeks); 23.4 mg/kg/day (rat, strain Wistar, males, in drinking water, site: lung, lesion: alveolar/bronchiolar adenoma, dosed 104 weeks, study length 104 weeks); 16 mg/kg/day (rat, strain Wistar, males, in drinking water, site: pancreatic islets, lesion: islet-cell adenoma, dosed 104 weeks, study length 104 weeks); 16.6 mg/kg/day (rat, strain Wistar, males, in drinking water, site: pancreatic islets, lesion: several types, types named in the paper, dosed 104 weeks, study length 104 weeks); 0.532 mg/kg/day (rat, strain Wistar, males, in drinking water, site: thyroid gland, lesion: follicular-cell adenoma, dosed 104 weeks, study length 104 weeks); 3.25 mg/kg/day (rat, strain Wistar, males, in drinking water, site: thyroid gland, lesion: follicular-cell carcinoma, dosed 104 weeks, study length 104 weeks). Also, the TD50 (rat, strain Wistar, males, in drinking water, site: thyroid gland, lesion: several types, types named in the paper, dosed 104 weeks, study length 104 weeks) is 0.678 mg/kg/day.
With `COc1ccc([C@@H]2CC(=O)c3c(O)cc(O[C@@H]4O[C@H](CO[C@@H]5O[C@@H](C)[C@H](O)[C@@H](O)[C@H]5O)[C@@H](O)[C@H](O)[C@H]4O)cc3O2)cc1OC`, the carcinogen call runs as follows: (mouse, strain B6C3F1, females, in feed, site: liver, lesion: hemangioma, dosed 96 weeks, study length 104 weeks) “negative (inactive)”; (mouse, strain B6C3F1, females, in feed, site: lung, lesion: adenoma, dosed 96 weeks, study length 104 weeks) “negative (inactive)”; (mouse, strain B6C3F1, males, in feed, site: liver, lesion: hemangioma, dosed 96 weeks, study length 104 weeks) “negative (inactive)”; (mouse, strain B6C3F1, males, in feed, site: lung, lesion: adenocarcinoma, dosed 96 weeks, study length 104 weeks) “negative (inactive)”; (mouse, strain B6C3F1, males, in feed, site: lung, lesion: adenoma, dosed 96 weeks, study length 104 weeks) “negative (inactive)”. Also, the TD50 was 887000 mg/kg/day (inactive) (mouse, strain B6C3F1, females, in feed, site: liver, lesion: hemangiosarcoma, dosed 96 weeks, study length 104 weeks); 194000 mg/kg/day (inactive) (mouse, strain B6C3F1, females, in feed, site: liver, lesion: hepatocellular carcinoma, dosed 96 weeks, study length 104 weeks); 379000 mg/kg/day (inactive) (mouse, strain B6C3F1, females, in feed, site: liver, lesion: hyperplastic nodule, dosed 96 weeks, study length 104 weeks); 146000 mg/kg/day (inactive) (mouse, strain B6C3F1, males, in feed, site: liver, lesion: hepatocellular carcinoma, dosed 96 weeks, study length 104 weeks); 416000 mg/kg/day (inactive) (mouse, strain B6C3F1, males, in feed, site: liver, lesion: hyperplastic nodule, dosed 96 weeks, study length 104 weeks).
With `Cn1c(=O)c2[nH]cnc2n(C)c1=O`, the TD50 (mouse, strain B6C3F1, females, by gavage, site: all sites, lesion: histiocytic sarcoma, dosed 103 weeks, study length 104 weeks) is 20.5 mg/kg/day (inactive). For the same compound, the carcinogen call was “negative (inactive)” (mouse, strain B6C3F1, males, by gavage, site: any site (literature study), lesion: several types, types named in the paper, dosed 103 weeks, study length 104 weeks); “negative (inactive)” (rat, strain Fischer 344, females, by gavage, site: any site (literature study), lesion: several types, types named in the paper, dosed 104 weeks, study length 104 weeks); “negative (inactive)” (rat, strain Fischer 344, males, by gavage, site: any site (literature study), lesion: several types, types named in the paper, dosed 104 weeks, study length 104 weeks).

These data come from PubChem BioAssay AID1745844 (Carcinogenic Potency Database (CPDB), 2022).
